A melting point compilation (Tetko et al.; mined from patent text by program, amines drawn as free bases though some values may be those of a salt)

Row | Structure (SMILES) | melting point
1 | CC(C)C[C@H](NC(=O)CCOc1ccccc1)C(=O)N[C@@H](C(C)C)[C@@H](O)c1c(-c2ccccc2)c1=O | 92 to 95 °C
2 | O=CNc1ccc(-c2ccc(C(=O)N3CCN4CCC3CC4)o2)cc1 | 236 °C
3 | CC(C)Cn1c(=O)[nH]c(=O)c2nc(-c3ccc(/C=C/C(=O)O)cc3)[nH]c21 | > 300 °C
4 | COc1cc(Nc2nccc(-c3ccc4ccccc4c3)n2)cc(OC)c1OC | 156 °C
5 | CCOC(=O)CN1CCC(=C2c3ccc(Cl)cc3CCc3cccnc32)CC1 | 80 to 82 °C
6 | O=C1NC(=S)NC(=O)C1=Cc1c[nH]c2ccccc12 | 320 °C
7 | COCOc1cc2c(c3ccccc13)Nc1ccccc1S2 | 103 °C
8 | C[C@H]1[C@H](Oc2cccc(C(F)(F)F)c2)CN1C(N)=O (relative stereo) | 107 to 108 °C
9 | O=C1N(CCC2CC2)c2ccccc2C12COc1cc3c(cc12)OCO3 (centres undefined) | 125 to 127 °C
10 | Clc1cccc(N2CCN(CCCCNc3ccc(-c4ccccc4)cn3)CC2)c1Cl | 110 °C
11 | O=C1NC(c2ccccc2)(c2ccccc2)C(=O)N1CO | 185 to 189 °C
12 | CCOc1cccc(CN2CCc3cc(O)c(OC)cc3C2)c1 | 105 to 106 °C
13 | CCNC(C)c1cc(S(N)(=O)=O)sc1S(C)(=O)=O (centres undefined) | 164 to 166 °C
14 | NCCN1CCC(c2n[nH]c3cc(F)ccc23)CC1 | 125 to 128 °C
15 | Oc1cccc2c1CCCC2N1CCCC1 (centres undefined) | 151 to 153 °C
16 | COc1ccccc1C(=O)Nc1ccc(C(=O)N2Cc3cccn3Cc3ccccc32)cc1 | 185 to 188 °C
17 | COc1ccnc(CSc2nc3c(C(F)(F)F)cccc3[nH]2)c1C | 175 °C
18 | COc1nc(C)nc(NC(=O)NS(=O)(=O)c2ccccc2C(=S)C(C)C)n1 | 155 to 158 °C
19 | NNc1nncc(-c2ccc(F)cc2)n1 | 228 to 231 °C
20 | N#Cc1ccc(N2C(=O)[C@@H]3[C@H](O)CCN3C2=S)c2ccccc12 | 215 to 216 °C
21 | O=C(C[C@@H](O)C(=O)O)c1ccccc1 | 128 to 131 °C
22 | CCNc1nc(OC)c(C(=O)NCC2CCCN2CC)nc1Cl (centres undefined) | 167 to 169 °C
23 | CC(C)n1nc(-c2c(-c3ccccc3)nn3ccc(O)cc23)ccc1=O | > 250 °C
24 | O=C(CBr)CCCCCCN1C(=O)c2ccccc2C1=O | 83 to 86 °C
25 | Cc1cccc(C#CC2=CC(=NO)CCC2)n1 | 166 to 168 °C

Row | Structure (SMILES) | melting point
26 | O=C(O)CCC12CC(c3ccccc31)c1ccccc12 | 185 to 189 °C
27 | CCCCc1nc(=O)c2cc(C=O)ccc2[nH]1 | 242 to 244 °C
28 | O=C(O)Cc1cccc(NC(=O)NCC(=O)N2[C@@H](c3ccccc3O)CC[C@H]2c2ccccc2)c1 (racemic) | 165 °C
29 | N#CCNC(=O)Cc1ccccc1 | 87 to 91 °C
30 | Fc1ccc(CSc2nnc(-c3ccc4c(c3)CCO4)o2)cc1F | 138 to 139 °C
31 | CS(=O)(=O)c1ccc(/C(=C2\CCN(CCC(=O)O)C2=O)c2ccc(Cl)cc2)cc1 | 178 to 179 °C
32 | CNC(C(=O)O)c1ccc(Cl)cc1 (centres undefined) | 208 to 213 °C
33 | Cc1nc(N)c(C#N)c(-c2ccco2)n1 | 317 to 320 °C
34 | O=C1OC(=O)c2c1cccc2C(Cl)(Cl)Cl | 121 to 124 °C
35 | CSc1nc(-c2cccnc2)n(-c2ccc(C)c(C)c2)c(=O)c1C#N | > 250 °C
36 | COc1cc2c(c(C(=O)O)c1OC)CCN(Cc1ccccc1)CC2c1ccccc1 (centres undefined) | 145 to 153 °C
37 | CCOCn1nccc1C(O)c1ccc(OC)c(Cl)c1Cl (centres undefined) | 155 to 157 °C
38 | CCOC(O)C(F)(F)C(F)(F)C(F)(F)C(F)(F)C(O)OCC (centres undefined) | 110 to 111 °C
39 | COc1cc(C)c(OC)c(OC)c1-c1csc(NC(=O)c2cc3ccccc3[nH]2)n1 | 200 °C
40 | CC1(C)CCC(C)(C)c2cc(C#Cc3ccc(C=O)cc3)ccc21 | 130 °C
41 | CC(=O)Nc1c(C)cc(F)cc1[N+](=O)[O-] | 167 to 172 °C
42 | CC1(C)COP(=O)(O)OC1c1ccc2ccccc2c1 (centres undefined) | 237 to 238 °C
43 | CCCCOc1c(-c2ccnc3ccc(C(C)=O)cc23)cc(C(C)C)cc1C(C)C | 133 °C
44 | NC(=O)C[C@H](NC(=O)CCc1ccc(OCc2ccccc2)cc1OCc1ccccc1)C(=O)N1CCN(Cc2ccccc2)CC1 | 112 to 114 °C
45 | Cc1nc2cc3c(cc2nc1C(=O)OC(C)(C)C)OC(C)(C)O3 | 104 to 105 °C
46 | COc1cc(C2c3cc4c(cc3C(NC3=CC(=O)N(Cc5ccc(F)cc5)C3=O)C3COC(=O)C23)OCO4)cc(OC)c1O (centres undefined) | 214 to 216 °C
47 | O=C1CCN(Cc2ccccc2[N+](=O)[O-])CC1C(c1ccc(F)cc1)c1ccc(F)cc1 (centres undefined) | 151 to 152 °C
48 | C[C@@H](c1ccc(-c2ccc(C(=O)NC3CC3)cn2)cc1)N1CC[C@](CC(C)(C)O)(c2ccccc2)OC1=O | 191 to 194 °C
49 | CCCCCCCCCC(O)CCc1ccc(O)c(OC)c1 (centres undefined) | 66 to 68 °C
50 | Cc1ccnc2c1C(=O)c1c(C)cc(=O)[nH]c1C2=O | 258 to 261 °C

Row | Structure (SMILES) | melting point
51 | CCOCc1nc2c(N)nc3cc(OCc4cccc(C)c4)ccc3c2n1CC(C)C | 207 to 208 °C
52 | N=C(Nc1ccc2c(C3CN4CCC3CC4)c[nH]c2c1)c1cccs1 (centres undefined) | 144 to 146 °C
53 | COc1cc2c(c(OC)c1OC)C(=O)O[C@H]2CO | 178 to 180 °C
54 | COc1ccc(C2(O)CCNCC2)cc1 | 120 to 122 °C
55 | O=c1[nH]cnc2c1cnn2-c1ncc(C(F)(F)F)cc1Cl | 331 °C
56 | CC(C)(C)c1cccc(S(=O)(=O)n2c(C(C)(O)c3ccc(C(=O)O)s3)cc3cc(C(F)(F)F)ccc32)c1 (centres undefined) | 80 °C
57 | CC(C(=O)Nc1ccc2[nH]c(=O)oc2c1)N1CCC(Cc2ccccc2)CC1 (centres undefined) | 116 to 118 °C
58 | CCS(=O)c1nc(-c2ccccc2)c(-c2ccccc2)o1 (centres undefined) | 133 to 134 °C
59 | COc1ccc2c(C)nc(=O)[nH]c2c1 | 251 to 254 °C
60 | CCOC(=O)/C=C/c1ccc(OCCC2(C)OCCO2)cc1Oc1ncc(C(F)(F)F)cc1Cl | 90 to 91 °C
61 | COC(=O)c1nn(C)nc1CO | 112 to 113 °C
62 | Cc1nn(-c2ccccn2)c2nc3ccccc3c(C#N)c12 | 210 to 211 °C
63 | Cn1c(=O)[nH]c(=O)n(-c2cc(Oc3ncc(C(F)(F)F)cc3Cl)ccc2Br)c1=O | 97 to 110 °C
64 | CCOC(=O)c1nc(-c2ccc(Cl)c(OC)c2F)cc(N)c1SC | 93 to 94 °C
65 | COc1cc(OC)nc(Oc2ccc3ccccc3c2C(=O)OCC=NOCC=CCl)n1 | 77 to 83 °C
66 | O=Cc1c2ccccc2c(Cl)c2c(Cl)cccc12 | 167 to 170 °C
67 | CCOc1ccc2[nH]c3c([N+](=O)[O-])ccc(Cl)c3c(=O)c2c1 | 244 to 246 °C
68 | CC(Cc1c[nH]c2ccccc12)(NC(=O)OC12CC3CC(CC(C3)C1)C2)C(=O)O (racemic) | 206 to 218 °C
69 | C[C@@H]1S[C@@H](C(=O)Nc2ccc(Cn3oc(=O)[nH]c3=O)cc2)Cc2cc3c(cc2C1=O)OCO3 | 237 to 239 °C
70 | Brc1ccc2c(c1)C(c1ccccc1)OC(c1ccncc1)=N2 (centres undefined) | 161 to 162 °C
71 | COC(=O)Cn1sc2ccccc2c1=O | 89 to 91 °C
72 | CC=CC=C1SC(=S)N(CC(=O)O)C1=O | 216 to 218 °C
73 | Nc1cccc2cccc(S)c12 | 69 to 72 °C
74 | Cc1oc(-c2cccs2)nc1CC#N | 185 °C
